The results in this text go back to patent US9738600B2, “ROR gamma (RORγ) modulators” (LEAD PHARMA CEL MODELS IP B.V., priority 2013, dated 2017).

One test concerns IL-17A production in anti-CD3/anti-CD28 stimulated peripheral blood mononuclear cells (PBMCs). In words: Peripheral blood mononuclear cell (PBMC) IL-17 assay. It counts as cell-based. As to conditions: Homo sapiens, 120 h, inhibition of IL-17A production, 5 days, IL-17 ELISA, read-out: mean pIC50 (converted). How it is done:
The assay procedure and results are described below.
This assay is designed to measure the levels of IL-17A secreted from anti-CD3/anti-CD28 stimulated PBMCs with the aim of measuring RORγ mediated inhibition of IL-17A production.
The assay medium consists of 90% RPMI 1640 (Lonza), 10% heat inactivated fetal bovin serum (FBS, Lonza) and 100 U/mL penicillin/streptomycin solution.
Anti-CD3 antibody (BD Pharmingen) was diluted to 10 μg/ml in PBS (Lonza). 30 μL of 10 μg/ml anti-CD3 solution was added to the inner 60 wells, excluding any negative control wells, of a 96-well cell culture treated U-bottom plate (Greiner). Plates were incubated overnight (16-24 hours) at 37° C. and 5% CO2.
Peripheral blood mononuclear cells were separated from buffy coats (Sanquin) using Ficoll-Paque PREMIUM separation medium (GE Healthcare Life Sciences) according to manufacturer's protocol and re-suspended in assay medium at 37° C.
Test compounds were diluted, starting from a 10 mM dimethylsulfoxide (DMSO) stock solution, to serial dilutions in DMSO at 200× the final test concentration. Subsequently, these solutions were diluted in two dilution steps in assay medium to 10× the final test concentration. The DMSO concentration of the 10× test compound solution was 5%.
Anti-CD28 antibody (BD Pharmingen) was diluted to 20 μg/mL in PBS. The PBMCs were diluted to a concentration of 2.5×10^6 cells/mL in assay medium at 37° C.
For compound screening, the anti-CD3 coated plates were washed three times with PBS, the wells were subsequently aspirated using vacuum. To each screening well 80 μL of the PBMC suspension, 10 μL of the anti-CD28 solution and 10 μL of the 10× test compound solution was added, resulting in the final test concentration with 0.5% DMSO. All outer wells were filled with assay medium to prevent evaporation. Plates were incubated for 5 days at 37° C. and 5% CO2.
After incubation the plates were spun down at 1500 rpm for 4 minutes and the supernatant was collected. Subsequently, the IL-17A levels in the supernatants was determined using an IL-17 ELISA kit (human IL-17 DuoSet, R&D systems) according to manufacturer's protocol.
The half maximum inhibitory concentration (IC50) values for the test compounds were calculated from the IL-17A signal using GraphPad Prism software (GraphPad Software).
Background: An ELISA detects its analyte on a solid surface through an enzyme-linked reagent.
As for `O=C(Cc1ccc(S(=O)(=O)NC2CC2)cc1)Nc1ccc(C(O)(C(F)(F)F)C(F)(F)F)cc1F` [Example 35, 2-(4-(N-cyclopropylsulfamoyl)phenyl)-N-(2-fluoro-4-(1,1,1,3,3,3-hexafluoro-2-hydroxypropan-2-yl)phenyl)acetamide], the IC50 is ≤ 1000 nM. Consider `O=C(Cc1ccc(S(=O)(=O)CC2CC2)cc1)Nc1ccc(C(O)(C(F)(F)F)C(F)(F)F)cn1` [Example 107, 2-(4-((cyclopropylmethyl)sulfonyl)phenyl)-N-(5-(1,1,1,3,3,3-hexafluoro-2-hydroxypropan-2-yl)pyridin-2-yl)acetamide], for which the IC50 was ≤ 1000 nM. On to `O=C(Cc1ccc(S(=O)(=O)NC2CC2)cc1)Nc1ccc(C(O)(C(F)(F)F)C(F)(F)F)c(F)c1` [Example 33, 2-(4-(N-cyclopropylsulfamoyl)phenyl)-N-(3-fluoro-4-(1,1,1,3,3,3-hexafluoro-2-hydroxypropan-2-yl)phenyl)acetamide], for which the IC50 was ≤ 1000 nM. Same read-out and setting: as for `CCS(=O)(=O)c1ccc(CC(=O)Nc2ccc(C(O)(C(F)(F)F)C(F)(F)F)cc2)cc1` [Example 2, 2-(4-(ethylsulfonyl)phenyl)-N-(4-(1,1,1,3,3,3-hexafluoro-2-hydroxypropan-2-yl)phenyl)acetamide], the figure is ≤ 1000 nM.

A further test has as its target T1, RORγ (Homo sapiens, UniProt P51449).
T1 sequence (P51449 269-508 limits assumed): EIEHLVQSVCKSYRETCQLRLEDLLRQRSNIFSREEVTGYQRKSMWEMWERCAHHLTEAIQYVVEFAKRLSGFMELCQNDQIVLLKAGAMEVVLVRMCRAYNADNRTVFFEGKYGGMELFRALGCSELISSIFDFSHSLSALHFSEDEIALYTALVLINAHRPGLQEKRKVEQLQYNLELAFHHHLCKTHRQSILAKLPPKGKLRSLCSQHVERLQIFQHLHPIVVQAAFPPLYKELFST
In words: RORγ GAL4 reporter gene assay. As to conditions: mean pIC50, inhibition of RORγ (GAL4-RORγ-LBD) in 293FT cells, luciferase readout, overnight incubation. A general note: Reporter assays use an easily measured gene product as a stand-in for the process of interest.
Text: The RORγ ligand-binding domain (LBD) was fused to the yeast GAL4 DNA binding domain (DBD) and placed under the control of the human cytomegalovirus (CMV) immediate early promoter, using expression vector pFN26A (Promega) and standard recombinant DNA cloning methods.
To monitor the inhibitory effect of compounds on RORγ, a transcriptional reporter construct was used. The pGL4.35 vector (Promega) contains nine copies of the GAL4 Upstream Activator Sequence (UAS). This sequence drives the transcription of the luciferase reporter gene luc2P in response to binding of a fusion protein containing the GAL4 DNA binding domain, as for example expressed by the GAL4-RORγ-LBD and GAL4-VP16 expression vectors described above.
The day after transfection, cells were plated into 96 well plates, test compound was added and the plates were incubated overnight. Subsequently, the firefly luciferase activity was quantified using luciferase detection reagent and luminescence readout.
1500 μL of this reagent mixture was added to 5 μg of GAL4 fusion protein expression vector and 5 μg of the transcriptional reporter construct, and incubated at RT for 20 minutes.
Subsequently, the cells were washed with Phosphate Buffered Saline (PBS) (Lonza), after which the PBS was removed. To dissociate the cells, 1 ml of TrypLE Express (Invitrogen) was added to the flask, followed by incubation at RT until the cells visually started to detach. Cells were collected in 5 mL of assay medium (DMEM culture medium (Lonza), 10% dialyzed FBS (Invitrogen) and Pen/Strep (Lonza)) to achieve a single cell suspension. 10×10^6 cells were spun down and re-suspended in 10 mL of assay medium. Subsequently, the cell suspension was added to the transfection mix tube, and then transferred as a whole to a T75 flask (Greiner), followed by overnight (16-24 hours) incubation at 37° C. and 5% CO2.
For compound screening, the cells were harvested (as described above) and counted. […] 80 μL of cell suspension (60,000 cells) was plated per well into a white, flat bottom, tissue culture treated, 96 well screening plates (Greiner).
Test compounds were diluted, starting from a 10 mM dimethylsulfoxide (DMSO) stock solution, to serial dilutions in DMSO at 500× the final test concentration. Subsequently, these solutions were diluted to 5× the final test concentration in two 10-fold-dilution steps in assay medium. The final DMSO concentration of the 5× test compound solution was 1%. 20 μL of the 5× test compound solution was added to each test well of the 96 well plate previously plated with 80 μl cell suspension, resulting in the final test concentration with 0.2% DMSO.
The plates were incubated overnight (16-24 hours) at 37° C. and 5% CO2.
For the luciferase readout, the luciferase reagent (Britelite Plus, Perkin Elmer) was brought to RT. […] The luciferase luminescence signal was measured using a Wallac Victor Microplate Reader (Perkin Elmer).
The half maximum inhibitory concentration (IC50) values for the test compounds were calculated from the luciferase signal using GraphPad Prism software (GraphPad Software).
As to `O=C(Cc1ccc(S(=O)(=O)NC2CC2)cc1)Nc1ccc(C(O)(C(F)(F)F)C(F)(F)F)cc1F` [Example 35, 2-(4-(N-cyclopropylsulfamoyl)phenyl)-N-(2-fluoro-4-(1,1,1,3,3,3-hexafluoro-2-hydroxypropan-2-yl)phenyl)acetamide], the IC50 was ≤ 100 nM. In the case of `O=C(Cc1ccc(S(=O)(=O)CC2CC2)cc1)Nc1ccc(C(O)(C(F)(F)F)C(F)(F)F)cn1` [Example 107, 2-(4-((cyclopropylmethyl)sulfonyl)phenyl)-N-(5-(1,1,1,3,3,3-hexafluoro-2-hydroxypropan-2-yl)pyridin-2-yl)acetamide], the IC50 is ≤ 100 nM. On to `CC(O)(c1ccc(NC(=O)Cc2ccc(S(=O)(=O)NC3CC3)cc2)cc1)C(F)(F)F` (stereo not shown) [Example 78, 2-(4-(N-cyclopropylsulfamoyl)phenyl)-N-(4-(1,1,1-trifluoro-2-hydroxypropan-2-yl)phenyl)acetamide], for which the IC50 was ≤ 1000 nM. On to `CC(C(=O)Nc1ccc(C(O)(C(F)(F)F)C(F)(F)F)cc1)c1ccc(S(=O)(=O)CC2CC2)cc1` (stereo not shown) [Example 109, 2-(4-((cyclopropylmethyl)sulfonyl)phenyl)-N-(4-(1,1,1,3,3,3-hexafluoro-2-hydroxypropan-2-yl)phenyl)propanamide], for which the IC50 is ≤ 100 nM.

For the compound `CCS(=O)(=O)c1ccc(CC(=O)Nc2ccc(C(OCC(F)(F)F)(C(F)(F)F)C(F)(F)F)cc2)cc1` [Example 112, 2-(4-(ethylsulfonyl)phenyl)-N-(4-(1,1,1,3,3,3-hexafluoro-2-(2,2,2-trifluoroethoxy)propan-2-yl)phenyl)acetamide], the IC50 was ≤ 1000 nM.

On to `CCCOC(c1ccc(NC(=O)Cc2ccc(S(=O)(=O)NC3CC3)cc2)cc1)(C(F)(F)F)C(F)(F)F` [Example 61, 2-(4-(N-cyclopropylsulfamoyl)phenyl)-N-(4-(1,1,1,3,3,3-hexafluoro-2-propoxypropan-2-yl)phenyl)acetamide], for which the IC50 was ≤ 100 nM. Turning to `O=C(Cc1ccc(S(=O)(=O)NC2CC2)cc1)Nc1ccc(C(O)(C(F)(F)F)C(F)(F)F)c(F)c1` [Example 33, 2-(4-(N-cyclopropylsulfamoyl)phenyl)-N-(3-fluoro-4-(1,1,1,3,3,3-hexafluoro-2-hydroxypropan-2-yl)phenyl)acetamide], the IC50 was ≤ 100 nM. `CCS(=O)(=O)c1ccc(CC(=O)Nc2ccc(C(O)(C3CC3)C(F)(F)F)cc2)cc1` (stereo not shown) [Example 73, N-(4-(1-cyclopropyl-2,2,2-trifluoro-1-hydroxyethyl)phenyl)-2-(4-(ethylsulfonyl)phenyl)acetamide]: the IC50 is ≤ 1000 nM.

`Cc1cc(C(O)(C(F)(F)F)C(F)(F)F)ccc1NC(=O)Cc1ccc(S(=O)(=O)CC2CC2)cc1` [Example 43, 2-(4-((cyclopropylmethyl)sulfonyl)phenyl)-N-(4-(1,1,1,3,3,3-hexafluoro-2-hydroxypropan-2-yl)-2-methylphenyl)acetamide]: the IC50 was ≤ 100 nM. Still for that read-out and setting: to `Cc1cc(NC(=O)Cc2cccc(S(=O)(=O)NC3CC3)c2)ccc1C(O)(C(F)(F)F)C(F)(F)F` [Example 36, 2-(3-(N-cyclopropylsulfamoyl)phenyl)-N-(4-(1,1,1,3,3,3-hexafluoro-2-hydroxypropan-2-yl)-3-methylphenyl)acetamide] belongs ≤ 1000 nM; to `CCS(=O)(=O)c1ccc(CC(=O)Nc2ccc(C(O)(CC(C)C)C(F)(F)F)cc2)cc1` (stereo not shown) [Example 66, 2-(4-(ethylsulfonyl)phenyl)-N-(4-(1,1,1-trifluoro-2-hydroxy-4-methylpentan-2-yl)phenyl)acetamide], ≤ 100 nM. In the case of `O=C(Cc1ccc(S(=O)(=O)CC2CC2)cc1)Nc1ccc(C(O)(c2ccccc2)C(F)(F)F)cc1` (stereo not shown) [Example 88, 2-(4-((cyclopropylmethyl)sulfonyl)phenyl)-N-(4-(2,2,2-trifluoro-1-hydroxy-1-phenylethyl)phenyl)acetamide], the IC50 was ≤ 100 nM. On to `CC(C)CC(O)(c1ccc(NC(=O)Cc2ccc(S(=O)(=O)NC3CC3)cc2)cc1)C(F)(F)F` (stereo not shown) [Example 76, 2-(4-(N-cyclopropylsulfamoyl)phenyl)-N-(4-(1,1,1-trifluoro-2-hydroxy-4-methylpentan-2-yl)phenyl)acetamide], for which the IC50 is ≤ 100 nM. In the case of `CC(C)CCCC(O)(c1ccc(NC(=O)Cc2ccc(S(=O)(=O)CC3CC3)cc2)cc1)C(F)(F)F` (stereo not shown) [Example 108, 2-(4-((cyclopropylmethyl)sulfonyl)phenyl)-N-(4-(1,1,1-trifluoro-2-hydroxy-6-methylheptan-2-yl)phenyl)acetamide], the IC50 is ≤ 100 nM. The same measure, in the same setting: as for `CC(C)(C)CC(O)(c1ccc(NC(=O)Cc2ccc(S(=O)(=O)NC3CC3)cc2)cc1)C(F)(F)F` (stereo not shown) [Example 94, 2-(4-(N-cyclopropylsulfamoyl)phenyl)-N-(4-(1,1,1-trifluoro-2-hydroxy-4,4-dimethylpentan-2-yl)phenyl)acetamide], the figure is ≤ 100 nM; as for `Nc1cc(C(O)(C(F)(F)F)C(F)(F)F)ccc1NC(=O)Cc1ccc(S(=O)(=O)CC2CC2)cc1` [Example 57, N-(2-amino-4-(1,1,1,3,3,3-hexafluoro-2-hydroxypropan-2-yl)phenyl)-2-(4-((cyclopropylmethyl)sulfonyl)phenyl)acetamide], ≤ 1000 nM. Regarding `O=C(Cc1ccc(S(=O)(=O)CC2CC2)cc1)Nc1ccc(C(O)(C(F)(F)F)C(F)(F)F)c(F)c1` [Example 45, 2-(4-((cyclopropylmethyl)sulfonyl)phenyl)-N-(3-fluoro-4-(1,1,1,3,3,3-hexafluoro-2-hydroxypropan-2-yl)phenyl)acetamide], the IC50 was ≤ 10 nM. For `CCS(=O)(=O)c1ccc(CC(=O)Nc2ccc(C(O)(CC(C)(C)C)C(F)(F)F)cc2)cc1` (stereo not shown) [Example 96, 2-(4-(ethylsulfonyl)phenyl)-N-(4-(1,1,1-trifluoro-2-hydroxy-4,4-dimethylpentan-2-yl)phenyl)acetamide], the IC50 was ≤ 100 nM. With `CCS(=O)(=O)c1ccc(CC(=O)Nc2ccc(C(O)(CC3CCCCC3)C(F)(F)F)cc2)cc1` (stereo not shown) [Example 74, N-(4-(3-cyclohexyl-1,1,1-trifluoro-2-hydroxypropan-2-yl)phenyl)-2-(4-(ethylsulfonyl)phenyl)acetamide], the IC50 was ≤ 1000 nM. Consider `Cc1cc(S(=O)(=O)CC2CC2)ccc1CC(=O)Nc1ccc(C(O)(C(F)(F)F)C(F)(F)F)cc1` [Example 93, 2-(4-((cyclopropylmethyl)sulfonyl)-2-methylphenyl)-N-(4-(1,1,1,3,3,3-hexafluoro-2-hydroxypropan-2-yl)phenyl)acetamide], for which the IC50 was ≤ 100 nM. Take `CCNS(=O)(=O)c1ccc(CC(=O)Nc2ccc(C(O)(C(F)(F)F)C(F)(F)F)cc2)cc1` [Example 10, 2-(4-(N-ethylsulfamoyl)phenyl)-N-(4-(1,1,1,3,3,3-hexafluoro-2-hydroxypropan-2-yl)phenyl)acetamide]: the IC50 was ≤ 1000 nM. `CCS(=O)(=O)c1ccc(CC(=O)Nc2ccc(C(OCc3ccccc3)(C(F)(F)F)C(F)(F)F)cc2)cc1` [Example 50, N-(4-(2-(benzyloxy)-1,1,1,3,3,3-hexafluoropropan-2-yl)phenyl)-2-(4-(ethylsulfonyl)phenyl)acetamide]: the IC50 is ≤ 1000 nM. On the same count and under the same terms, to `CCS(=O)(=O)c1ccc(CC(=O)Nc2ccc(C(O)(C(F)(F)F)C(F)(F)F)c(F)c2C)cc1` [Example 15, 2-(4-(ethylsulfonyl)phenyl)-N-(3-fluoro-4-(1,1,1,3,3,3-hexafluoro-2-hydroxypropan-2-yl)-2-methylphenyl)acetamide] belongs ≤ 1000 nM; to `O=C(Cc1ccc(S(=O)(=O)CC2CC2)cc1)Nc1ccc(C(O)(C(F)(F)F)C(F)(F)F)c(Cl)c1` [Example 62, N-(3-chloro-4-(1,1,1,3,3,3-hexafluoro-2-hydroxypropan-2-yl)phenyl)-2-(4-((cyclopropylmethyl)sulfonyl)phenyl)acetamide], ≤ 100 nM.
